Data: PubChem BioAssay AID330 (DTP/NCI, 2004)
Several values for one entry are separate records, joined by “and”; a condition that tells them apart may be missing. Equal entries are not always repeated. Inconclusive results and toxic doses are left out.

System: P388 leukemia ip, CD2F1 mice, survival T/C
Test: NCI In Vivo Anticancer Drug Screen. Data for tumor model P388 Leukemia (intraperitoneal) in CD2F1 (CDF1) mice
Conditions: endpoint: median survival time, higher = longer survival
How it was run: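 Mice carrying the transplanted tumor received test compound or vehicle. Survival was recorded in each group, and the value is the treated-group measurement divided by that of the vehicle-treated control group.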

[1] = dose: 60.0 mg/kg/injection, schedule: Q01DX005 (ip), vehicle: saline with Tween-80
[2] = dose: 120.0 mg/kg/injection, schedule: Q01DX005 (ip), vehicle: saline with Tween-80
[3] = dose: 50.0 mg/kg/injection, schedule: Q04DX003 (ip), vehicle: saline with Tween-80
[4] = dose: 100.0 mg/kg/injection, schedule: Q04DX003 (ip), vehicle: saline with Tween-80
[5] = dose: 200.0 mg/kg/injection, schedule: Q04DX003 (ip), vehicle: saline with Tween-80
[6] = dose: 400.0 mg/kg/injection, schedule: Q04DX003 (ip), vehicle: saline with Tween-80

With `O=C(O)c1cc(F)cc(C(=O)O)c1` the T/C (dose: 50.0 mg/kg/injection, schedule: Q04DX003 (ip), vehicle: suspension in saline) was 109 % of control, the T/C (dose: 100.0 mg/kg/injection, schedule: Q04DX003 (ip), vehicle: suspension in saline) was 104 % of control and the T/C (dose: 200.0 mg/kg/injection, schedule: Q04DX003 (ip), vehicle: suspension in saline) was 110 % of control.

In the case of `CCCCCCC(=O)c1c(O)c2ccccc2oc1=O`, the T/C [1] is reported as 100 % of control and the T/C [2] is reported as 88 % of control.

`c1ccc(NC2=NCCO2)nc1` was tested, and the T/C [3] was 100 % of control, the T/C [4] was 95 % of control and the T/C [5] was 100 % of control.

With `Cc1cc(=O)[nH]c(Nc2ccccc2)n1` the T/C [4] was 100 % of control, the T/C [5] was 90 % of control and the T/C [6] was 100 % of control.

For `Clc1cncc(N2CCNCC2)n1`, the T/C (dose: 12.5 mg/kg/injection, schedule: Q01DX009 (ip), vehicle: Klucel (hydroxypropylcellulose) (HPC)) was 100 % of control, the T/C (dose: 25.0 mg/kg/injection, schedule: Q01DX009 (ip), vehicle: Klucel (hydroxypropylcellulose) (HPC)) was 99 % of control and the T/C (dose: 50.0 mg/kg/injection, schedule: Q01DX009 (ip), vehicle: Klucel (hydroxypropylcellulose) (HPC)) was 108 % of control and 91 % of control.

With `CCOP(=O)(O)CP(=O)(O)OCC.CCOP(=O)(O)CP(=O)(O)OCC.[Cr]` the T/C [3] was 102 % of control, the T/C [4] was 98 % of control and the T/C [5] was 99 % of control.

For `CC1(C)SC(C)(c2ccc[nH]2)N(c2nccs2)C1=O` (stereo not drawn), the T/C (dose: 60.0 mg/kg/injection, schedule: Q01DX005 (ip), vehicle: Klucel (hydroxypropylcellulose) (HPC)) was 106 % of control, the T/C (dose: 120.0 mg/kg/injection, schedule: Q01DX005 (ip), vehicle: Klucel (hydroxypropylcellulose) (HPC)) was 104 % of control and the T/C (dose: 240.0 mg/kg/injection, schedule: Q01DX005 (ip), vehicle: Klucel (hydroxypropylcellulose) (HPC)) was 102 % of control.

In the case of `N#CC(C(=O)CCc1nc2ccccc2[nH]1)c1c(Cl)cccc1Cl` (stereo not drawn), the T/C [1] is reported as 109 % of control, the T/C [2] is reported as 101 % of control and the T/C (dose: 240.0 mg/kg/injection, schedule: Q01DX005 (ip), vehicle: saline with Tween-80) is reported as 102 % of control.

For `CC(C)NCCCNCC(=O)Nc1ccc(S(=O)(=O)c2ccc(NC(=O)CNCCCNC(C)C)cc2)cc1`, the T/C (dose: 12.5 mg/kg/injection, schedule: Q01DX005 (ip), vehicle: Klucel (hydroxypropylcellulose) (HPC)) was 104 % of control, the T/C (dose: 25.0 mg/kg/injection, schedule: Q01DX005 (ip), vehicle: Klucel (hydroxypropylcellulose) (HPC)) was 102 % of control and the T/C (dose: 50.0 mg/kg/injection, schedule: Q01DX005 (ip), vehicle: Klucel (hydroxypropylcellulose) (HPC)) was 103 % of control.

In the case of `CCC(CCC(C)C1CCC2C3CC=C4CC(OP(=[Se])(c5ccccc5)c5ccccc5)CCC4(C)C3CCC12C)C(C)C` (stereo not drawn), the T/C (dose: 13.75 mg/kg/injection, schedule: Q01DX001 (ip), vehicle: Klucel (hydroxypropylcellulose) (HPC)) is reported as 102 % of control, the T/C (dose: 27.5 mg/kg/injection, schedule: Q01DX001 (ip), vehicle: Klucel (hydroxypropylcellulose) (HPC)) is reported as 106 % of control and the T/C (dose: 55.0 mg/kg/injection, schedule: Q01DX001 (ip), vehicle: Klucel (hydroxypropylcellulose) (HPC)) is reported as 104 % of control.

`CS/C(=N\N=C(/C)c1ccccn1)N1CCN(c2ccccn2)CC1` was tested, and the T/C [4] was 98 % of control, the T/C [5] was 99 % of control and the T/C [6] was 96 % of control.

For `CCOP(=O)(c1ccccc1)N1CCOCC1` (stereo not drawn), the T/C (dose: 100.0 mg/kg/injection, schedule: Q04DX003 (ip), vehicle: saline) was 105 % of control, the T/C (dose: 200.0 mg/kg/injection, schedule: Q04DX003 (ip), vehicle: saline) was 108 % of control and the T/C (dose: 400.0 mg/kg/injection, schedule: Q04DX003 (ip), vehicle: saline) was 95 % of control.

For `O=c1c2ccccc2nc(-c2ccccc2Cl)n1/N=C/c1cccc([N+](=O)[O-])c1`, the T/C (dose: 0.78 mg/kg/injection, schedule: Q01DX009 (ip), vehicle: saline with Tween-80) was 99 % of control, the T/C (dose: 1.56 mg/kg/injection, schedule: Q01DX009 (ip), vehicle: saline with Tween-80) was 92 % of control and the T/C (dose: 3.12 mg/kg/injection, schedule: Q01DX009 (ip), vehicle: saline with Tween-80) was 91 % of control.
